Experimental data as given in publication PMC8145986, “In Vitro Enzymatic and Kinetic Studies, and In Silico Drug-Receptor Interactions, and Drug-Like Profiling of the 5-Styrylbenzamide Derivatives as Potential Cholinesterase and β-Secretase Inhibitors with Antioxidant Properties” (Antioxidants, 2021).

Target: T1, AChE (Homo sapiens, UniProt P22303)
T1 construct: purchased BioLegend (via Biocom Africa (Pty) Ltd.)
Test: biochemical
Conditions: mean ± SD of three independent experiments
Experimental: (§1) The melting point values of the test compounds were recorded on a Thermocouple digital melting point apparatus (Mettler Toledo LLC, Columbus, OH, USA). The infrared (IR) spectra were recorded using the thin-film method on a Bruker VERTEX 70 FT-IR Spectrometer (Bruker Optics, Billerica, MA, USA) equipped with an ATR (diamond attenuated total reflectance) accessory. Merck kieselgel 60 (0.063–0.200 mm) (Merck KGaA, Frankfurt, Germany) was used as a stationary phase for column chromatography. The ^1H-NMR and ^13C-NMR spectra of the prepared compounds were obtained as deuterated dimethyl sulfoxide ((CD3)2SO) solutions using Agilent 500 MHz NMR spectrometer (Agilent Technologies, Oxford, UK) operating at 500 MHz and 125 MHz for ^1H and ^13C, respectively. The chemical shifts are quoted relative to tetramethylsilane (TMS) used as an internal reference standard (δ = 0.00 ppm) or a residual protonated solvent. The high-resolution mass spectra were recorded at an ionization potential of 70 eV using Micromass Autospec-TOF (double focusing high resolution) instrument (Waters Corp., Milford, MA, USA). The synthesis and analytical data for 2-amino-5-iodobenzamide (1) have been reported in our previous study. Recombinant human AChE (BioLegend) and BChE (Cloud-Clone Corp.) were purchased via Biocom Africa (Pty) Ltd. (Centurion, Pretoria, South Africa).
(§2) AChE and BChE were used to determine cholinesterase activities spectrophotometrically using […] as substrates, respectively, following a modification of the Ellman’s method, as described in our previous study, and the reactions were performed in triplicate at 37 °C in a 96-well plate. […] A multi-channel pipette was used for the addition of reagents to the wells.
To each well of a 96-well plate, 8.0 μL solution of the test compound, 2.0 μL of AChE (0.04 mg/mL), and 70 μL of Tris buffer (C4H11NO3, 50 mM, pH 7.7) were added sequentially. The assay mixture was pre-incubated for 30 min at room temperature, which was followed by the addition of 10 μL of 5,5′-dithiobis-(2-nitrobenzoic acid) (DTNB, 3 mM in Tris buffer, 50 mM, pH 7.7) and 10 μL of […] (AChI, 5 mM in tris buffer, 50 mM, pH 7.7) to each well to initiate the reaction. […] The average values obtained from the absorbance readings were used to determine the IC50 and standard deviation values using the Graph Pad Prism (version 5.0, GraphPad software Inc., San Diego, CA, USA).

T1 sequence (P22303 32-614): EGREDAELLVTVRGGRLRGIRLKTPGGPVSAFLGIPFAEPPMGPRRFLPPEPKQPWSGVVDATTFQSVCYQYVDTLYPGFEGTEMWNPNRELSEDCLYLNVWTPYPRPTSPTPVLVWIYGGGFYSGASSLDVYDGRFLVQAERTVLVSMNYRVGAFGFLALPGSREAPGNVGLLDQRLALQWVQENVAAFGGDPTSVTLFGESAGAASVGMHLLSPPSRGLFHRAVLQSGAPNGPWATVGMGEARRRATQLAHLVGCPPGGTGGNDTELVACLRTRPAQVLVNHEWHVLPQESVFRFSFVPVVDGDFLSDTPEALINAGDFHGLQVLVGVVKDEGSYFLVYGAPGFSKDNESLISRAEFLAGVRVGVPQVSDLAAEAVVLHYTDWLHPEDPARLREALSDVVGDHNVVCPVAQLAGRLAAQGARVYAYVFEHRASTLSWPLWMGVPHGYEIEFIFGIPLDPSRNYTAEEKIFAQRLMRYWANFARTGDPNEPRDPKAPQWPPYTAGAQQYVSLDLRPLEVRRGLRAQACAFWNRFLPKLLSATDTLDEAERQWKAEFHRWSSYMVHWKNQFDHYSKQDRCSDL

Compound	IC50 [µM]
Cc1ccc(S(=O)(=O)Nc2ccc(/C=C/c3ccc(Cl)cc3)cc2C(N)=O)cc1 [Compound 3c, (E)-5-(4-Chlorostyryl)-2-[[(4-methylphenyl)sulfonyl]amino]benzamide]	7.8 ± 0.21
COc1ccc(/C=C/c2ccc(NS(=O)(=O)c3ccc(C)cc3)c(C(N)=O)c2)cc1 [Compound 3d, (E)-5-(4-Methoxystyryl)-2-[[(4-methylphenyl)sulfonyl]amino]benzamide]	11.3 ± 0.23

Target: T2, BChE (Homo sapiens, UniProt P06276)
T2 construct: purchased Cloud-Clone Corp. (via Biocom Africa (Pty) Ltd.)
Test: biochemical
Conditions: mean ± SD of three independent experiments
Experimental: as §1, §2
A total of 8.0 μL of the test compound and 2.0 μL of BChE (0.02 mg/mL) was added to each of the designated wells of the 96-well plate, and the mixtures were incubated at room temperature for 30 min. Tris buffer (70 μL) was added to each well containing the reaction mixture and incubation was continued for a further 10 min at this temperature, which was followed by the addition of 10 μL solution of 5,5′-dithiobis-(2-nitrobenzoic acid) (DTNB) (3 mM in Tris buffer, 50 mM, pH 7.7) and butyrylcholine iodide (5 mM in Tris buffer, 50 mM, pH 7.7) to each well to initiate the reaction. […] The IC50 and standard deviation values using the Graph Pad Prism.

T2 sequence (P06276 29-602): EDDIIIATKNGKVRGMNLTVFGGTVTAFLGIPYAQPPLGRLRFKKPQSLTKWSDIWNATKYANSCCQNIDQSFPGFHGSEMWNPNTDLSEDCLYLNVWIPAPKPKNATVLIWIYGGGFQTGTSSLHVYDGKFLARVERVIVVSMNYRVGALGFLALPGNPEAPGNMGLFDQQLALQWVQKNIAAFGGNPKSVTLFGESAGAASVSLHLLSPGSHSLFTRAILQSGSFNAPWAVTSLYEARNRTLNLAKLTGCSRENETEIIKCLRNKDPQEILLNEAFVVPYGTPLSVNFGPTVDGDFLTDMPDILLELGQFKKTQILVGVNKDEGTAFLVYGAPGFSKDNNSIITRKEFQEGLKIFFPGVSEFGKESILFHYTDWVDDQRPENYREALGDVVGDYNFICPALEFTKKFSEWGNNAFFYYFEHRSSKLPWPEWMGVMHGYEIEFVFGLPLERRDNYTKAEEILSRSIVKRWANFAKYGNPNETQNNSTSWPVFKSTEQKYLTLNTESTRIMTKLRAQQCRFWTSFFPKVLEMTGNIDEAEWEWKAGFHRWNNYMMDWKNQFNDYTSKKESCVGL

Compound	IC50 [µM]
Cc1ccc(S(=O)(=O)Nc2ccc(/C=C/c3ccc(Cl)cc3)cc2C(N)=O)cc1 [Compound 3c, (E)-5-(4-Chlorostyryl)-2-[[(4-methylphenyl)sulfonyl]amino]benzamide]	6.9 ± 0.1
COc1ccc(/C=C/c2ccc(NS(=O)(=O)c3ccc(C)cc3)c(C(N)=O)c2)cc1 [Compound 3d, (E)-5-(4-Methoxystyryl)-2-[[(4-methylphenyl)sulfonyl]amino]benzamide]	13.3 ± 0.26

Target: T3, β-secretase (Homo sapiens, UniProt P56817)
T3 construct: purchased Thermo Fisher Scientific Corporation; host or cells: baculovirus-expressed
Test: β-Secretase (BACE-1) inhibition assay
Format: biochemical
Conditions: mean ± SD of three independent experiments
Experimental: The β-secretase inhibitory activities of the test compounds were assayed in triplicates in 96-well plates using a recombinant baculovirus-expressed β-secretase and a specific substrate (Rh-[…]-Quencher), according to the manufacturer’s (Thermo Fisher Scientific Corporation, Johannesburg, Gauteng, South Africa) instructions, as described in our previous study. […] To each well, 2.0 μL human recombinant β-secretase (1.0 U/mL) was added to start the reaction and the reaction mixture was incubated for 60 min at room temperature. […] The IC50 and standard deviation values of both the test compounds and reference standard were calculated using the Graph Pad Prism.

T3 sequence (P56817 46-501): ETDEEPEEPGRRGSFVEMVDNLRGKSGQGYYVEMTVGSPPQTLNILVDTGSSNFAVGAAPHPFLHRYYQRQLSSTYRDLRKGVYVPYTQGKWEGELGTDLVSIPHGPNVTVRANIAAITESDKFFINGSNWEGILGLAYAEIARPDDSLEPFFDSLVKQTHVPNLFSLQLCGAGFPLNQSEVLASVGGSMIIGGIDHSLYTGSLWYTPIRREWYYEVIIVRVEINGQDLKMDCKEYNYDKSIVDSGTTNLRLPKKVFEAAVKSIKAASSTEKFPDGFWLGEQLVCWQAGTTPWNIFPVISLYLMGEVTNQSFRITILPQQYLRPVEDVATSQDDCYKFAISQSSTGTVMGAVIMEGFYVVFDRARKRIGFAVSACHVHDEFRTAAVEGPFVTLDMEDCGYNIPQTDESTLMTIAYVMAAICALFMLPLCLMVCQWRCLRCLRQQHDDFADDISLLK

Compound	IC50 [µM]
Cc1ccc(S(=O)(=O)Nc2ccc(/C=C/c3ccc(Cl)cc3)cc2C(N)=O)cc1 [Compound 3c, (E)-5-(4-Chlorostyryl)-2-[[(4-methylphenyl)sulfonyl]amino]benzamide]	15 ± 0.16
COc1ccc(/C=C/c2ccc(NS(=O)(=O)c3ccc(C)cc3)c(C(N)=O)c2)cc1 [Compound 3d, (E)-5-(4-Methoxystyryl)-2-[[(4-methylphenyl)sulfonyl]amino]benzamide]	19.3 ± 0.24

System: not listed separately
Test: DPPH radical scavenging assay
Conditions: listed as ascorbic acid, read-out: IC50 (SD) DPPH
Experimental: The antioxidant activities of the test compounds against ascorbic acid (Sigma Aldrich, Saint Louis, MO, USA) as a positive control were evaluated using a 2,2-diphenyl-1-picrylhydrazyl (DPPH) radical scavenging assay developed by Zhu et al., as described in our previous study. Duplicate solutions (20 μL) of the test compounds and ascorbic acid in DMSO (final concentrations: 5, 10, 25, 50, and 100 μM) were added into each designated well of a 96-well plate. A solution of DPPH (0.20 mM) (20 μL) in methanol was added to each well, and the 96-well plate was wrapped with aluminium foil and incubated in the dark for 45 min. Five absorbance readings were recorded at 512 nm using a Varioskan flash microplate spectrophotometer reader. The average values obtained from the absorbance readings were used to determine the IC50 and standard deviation values.

Compound	IC50 [µM]
O=C1O[C@H]([C@@H](O)CO)C(O)=C1O [Ascorbic acid, reference compound]	4.2

Same assay, conditions: read-out: IC50 (SD) DPPH

Compound	IC50 [µM]
O=C1O[C@H]([C@@H](O)CO)C(O)=C1O [Ascorbic acid, reference compound]	4.18 ± 0.13
Cc1ccc(S(=O)(=O)Nc2ccc(/C=C/c3ccc(Cl)cc3)cc2C(N)=O)cc1 [Compound 3c, (E)-5-(4-Chlorostyryl)-2-[[(4-methylphenyl)sulfonyl]amino]benzamide]	22.4 ± 0.51
COc1ccc(/C=C/c2ccc(NS(=O)(=O)c3ccc(C)cc3)c(C(N)=O)c2)cc1 [Compound 3d, (E)-5-(4-Methoxystyryl)-2-[[(4-methylphenyl)sulfonyl]amino]benzamide]	9.1 ± 0.26

System: not listed separately
Test: Nitric oxide radical scavenging assay (Griess reaction)
Conditions: NO radical scavenging
Experimental: Nitric oxide was generated from sodium nitroprusside and measured by Griess’ reaction following the literature method. The experiment was done in triplicate with ascorbic acid (vitamin C) used as a positive control for the assay. In total, 50 μL of each of the test compounds and the positive control at various concentrations (0.1, 0.5, 1.0, 5.0, and 10.0 μM in methanol) were added to each designated well of the 96 well plate. A total of 50 μL of sodium nitroprusside (10 mM) prepared in saline phosphate buffer (pH = 7.4) was then added to each well and the reaction mixture incubated at room temperature for 3 h. Afterward, 300 μL of the Griess reagent (a mixture of 0.2% N-(1-naphthyl)ethylenediamine dihydrochloride and 2% sulfanilamide in […]) was added to each well and absorbance was read at 546 nm using a Varioskan flash microplate spectrophotometer reader.

Compound	IC50 [µM]
O=C1O[C@H]([C@@H](O)CO)C(O)=C1O [Ascorbic acid, reference compound]	6.23 ± 0.13
Cc1ccc(S(=O)(=O)Nc2ccc(/C=C/c3ccc(Cl)cc3)cc2C(N)=O)cc1 [Compound 3c, (E)-5-(4-Chlorostyryl)-2-[[(4-methylphenyl)sulfonyl]amino]benzamide]	8.6 ± 0.3
COc1ccc(/C=C/c2ccc(NS(=O)(=O)c3ccc(C)cc3)c(C(N)=O)c2)cc1 [Compound 3d, (E)-5-(4-Methoxystyryl)-2-[[(4-methylphenyl)sulfonyl]amino]benzamide]	12.3 ± 0.31

Same assay, conditions: NO radical scavenging; listed as ascorbic acid

Compound	IC50 [µM]
O=C1O[C@H]([C@@H](O)CO)C(O)=C1O [Ascorbic acid, reference compound]	6.2

System: not listed separately
Test: in vitro
Conditions: not given
Experimental: (§3) The cytotoxicity activity of the compounds was evaluated using the 3-(4,5-dimethylthiazol-2-yl)-2,5-diphenyltetrazolium bromide (MTT) assay following a modification of a method by Mosmann. Normal monkey kidney cells (Vero cells) and adeno-carcinomic human epithelial cells (A549 cells) were maintained in Dulbecco’s modified Eagle’s medium (DMEM, Gibco) supplemented with 10% fetal bovine serum (FBS) and 1% penicillin/streptomycin in culture flasks and incubated at 37 °C in 5% CO2. […] Cells were seeded at 1 × 10^5 cells/well and incubated overnight to allow cell attachment. After 24 h, treatments were administered with different concentrations (0, 2.5, 5, 10, 25, 50, and 100 μM) of the compounds and doxorubicin (positive control). After 24 h of incubation, 20 μL of the MTT solution (5 mg/mL) was added in all the wells, which was followed by 4 h of incubation.

Compound	IC50 at 24 h [µM]
COc1cccc2c1C(=O)c1c(O)c3c(c(O)c1C2=O)C[C@@](O)(C(=O)CO)C[C@@H]3O[C@H]1C[C@H](N)[C@H](O)[C@H](C)O1 [Doxorubicin, reference compound]	0.66 ± 0.12

System: not listed separately
Test: in vitro
Conditions: human
Experimental: as §3

Compound	IC50 at 24 h [µM]
COc1cccc2c1C(=O)c1c(O)c3c(c(O)c1C2=O)C[C@@](O)(C(=O)CO)C[C@@H]3O[C@H]1C[C@H](N)[C@H](O)[C@H](C)O1 [Doxorubicin, reference compound]	1.14 ± 0.23

System: BChE
Test: not given
Parameters: method as in PMID 23722618
Conditions: cited from earlier work

Compound	fold more active and selective against BChE than against AChE [fold]
Oc1ccccc1/C=C/c1cc(O)c(F)c(O)c1 [C]	94
